The nature of data set [1]: pH of aqueous solutions of the compounds. Type of data set: physicochemical. To be noted: stock solutions prepared in culture media diluted with deionized water. As to the method:
The pH values shown in Table 1 were determined in aqueous solutions made by diluting stock solutions prepared in culture media with deionized water.

For data set [2], the system named is SW480 P3 (ATCC #CCL228) human colon carcinoma cells. Briefly: Screening assay for enhancement of transient expression (β-galactosidase gene, liposomal transfection, 6-well plates). Type of data set: cell-based. The settings on record: for G Factor (G14): Table 1, values without asterisk, days 4-14 after transfection; for X Factor / K Factor: Table 1; for X Factor: cumulative β-galactosidase vs control, first four days after transfection, compound at the mM given in the table; for K Factor: ratio of first order rate constants of change in expression, control vs compound; for effect on transient expression when present before or during the transfection step: polyanionic carbohydrates, liposomal transfection. An excerpt:
These parameters are called the “X” factor, the “G” factor, and the “K” factor. [formula]
This factor reflects the extent to which a chemical compound added to a transfected cell enhances stabilizes transient expression for the first four days following transfection. […] For example, if expression is doubled in the presence of a compound, […]. […] X may be calculated similarly when the agent in question is a mixture of more than one chemical compound.
Cumulative protein expression, i.e., the values for “A” and “C”, is measured by summing the values measured daily in aliquots of the cultured cells.
2. G factors. G factors differ from the X factor only with respect to the time period evaluated. For calculating a G factor, the amount of protein expressed is measured from days 4-7 or days 4-14, where day 0 is the day on which the foreign DNA is added to the cells. The subscripts denote which of the two time periods provided the basis for measurement. […] As for the X factor, [formula]
3. K factor. The K factor is the ratio of the rate constants for the change in the foreign DNA expression in control transfected cells and in cells exposed to a chemical compound of the subject invention. K is determined according to the following equation: [formula]
wherein “k(DNA)” is the first order rate constant for the change in concentration of the protein expressed from the transgenic DNA, which is expressing protein as a function of time, i.e., [formula]
Values for k(DNA) are derived by using a computer program that plots the log of the foreign protein concentration against time, using the results of transgenic protein measurements that begin about 24 hours after the foreign DNA has been added to the cell. […] However, the program calculates a “best fit” line for each data set, and determines the slope of that portion of the resulting line that corresponds to the period during which protein production is changing. […] Thus, the slope is calculated during this period of decline to provide values for k(DNA) and K that can be compared for the purpose of comparing the efficacy of different chemical compounds.
SW480 P3 (ATCC #CCL228) human colon carcinoma cells (typically, 1×10^6 cells) were plated in the wells of a 6-well tissue culture plate. The number of wells plated reflected the number of days post-transfection during which the experiment would proceed. Each well contained 1 ml of complete media from a 30 ml stock solution containing: 26.4 ml RPMI tissue culture medium, 4 mM L-glutamine, 3.0 ml fetal bovine serum, and 10 μg/ml gentamicin. Cells were cultured at 37° C. in a CO2 incubator with 10% CO2 for 24 hours after being plated, during which time the cells adhered to the plates.
After the 24 hour pre-incubation step, the transfection step was carried out by removing the RPMI and adding 900 μL OPTI-MEM® (Gibco) medium containing 2 μg of VR1412 DNA (Vical, Inc., San Diego, Calif.), which expresses the bacterial β-galactosidase gene under the control of a cytomegalovirus promoter, and 8 μg of a mixture of cationic lipid (1,2-dimyristyloxyproply-3-dimethyl-hydroxyethyl ammonium bromide (e.g., “DMRIE/DOPE”) mixed in equimolar proportions with dioleoylphosphatidylethanolamine) to yield a lipid:DNA molar ratio of 0.99:1. It should be noted that typical transient transfection protocols employ 10 μg DNA per 10^6 cells, but the protocol described here uses less DNA in order to reduce toxicity to the cells. The plates were then incubated for 4 hours at 37° C.
After the 4 hour incubation step, 100 μl of heat deactivated fetal bovine serum (to stop transfection), plus 12.0 μl of 50 mg/ml gentamicin were added to each well.

Setting [3] is: Table 1, values marked with asterisk, days 4-7 after transfection.

Where “and” joins values, the source holds several entries; their conditions need not be identical. Equal entries are not always repeated. Entries after “also recorded” stand apart in the source; their conditions may differ. Where two headings read alike, the source gives them in different places. Marks after values point to notes of the source that are not given here.

Regarding `NC(=O)NC(CC(=O)O)C(=O)O` (racemic) [N-CARBAMYL-DL-ASPARTIC ACID], in data set [1], the “pH (H20)” value is on record as 4.19. In data set [2], the “G Factor (G14)” value is recorded as 115 and the “X Factor” value was found to be 26.

Take `Nc1cccc(S(=O)(=O)O)c1` [3-AMINO BENZENE SULFONIC ACID]: in data set [1], the “pH (H20)” value is on record as 3.8. Further, in data set [2], the “G Factor (G14)” value turned out to be 32 and the “X Factor” value is −19.

As to `Cn1cncc1C[C@H](N)C(=O)O` [3-METHYL-L-HISTIDINE], in data set [1], the “pH (H20)” value worked out at 7.39. Moreover, in data set [2], the “G Factor (G14)” value is recorded as 55 and the “X Factor” value is −15.

Take `Nc1ccc(C(=O)O)cc1` [4-AMINO-BENZOIC ACID]: the “pH (H20)” value in data set [1] is 7.67. The “G Factor (G7)” value in data set [2] (setting [3]) is 96. Further, in data set [2], the “G Factor (G14)” value is −12; the “X Factor” value is on record as 52, 52; the “K Factor” value is 1, 1.

`CCCCc1ccc(C(=O)O)cc1` [4-BUTYLBENZOIC ACID]: the “pH (H20)” value in data set [1] is 5.94.

Consider `CCc1ccc(C(=O)O)cc1` [4-ETHYLBENZOIC ACID], for which the “pH (H20)” value in data set [1] is given as 6. For the same molecule, the “K Factor” value in data set [2] is 1 and 2.

As for `CCCCCCc1ccc(C(=O)O)cc1` [4-HEXYLBENZOIC ACID], in data set [1], the “pH (H20)” value is on record as 6.13.

As to `CCCCCCCCc1ccc(C(=O)O)cc1` [4-OCTYL BENZOIC ACID], the “pH (H20)” value in data set [1] is reported as 7.45. Besides, in data set [2], the “G Factor (G14)” value is reported as −665 and the “X Factor” value is on record as −2314.

Regarding `CCCCCc1ccc(C(=O)O)cc1` [4-PENTYLBENZOIC ACID], in data set [2], the “G Factor (G14)” value is −88 and the “X Factor” value is −96.

`CNCC(O)c1ccc(O)c(O)c1` (stereo not drawn) [ADRENALINE]: the “pH (H20)” value is listed as 10.29 in data set [1] and around 10 in data set [1] (listed as adrenaline). Besides, the “G Factor (G14)” value in data set [2] turned out to be 68. In addition, the “X Factor” value in data set [2] was 49.

Take `N[C@@H](CC(=O)O)C(=O)O` [ASPARTIC ACID]: the “pH (H20)” value in data set [1] is 5.75. In data set [2] (setting [3]), the “G Factor (G7)” value is −17. In addition, in data set [2], the “G Factor (G14)” value is recorded as −45.

Consider `O=C(O)c1ccccc1` [BENZOIC ACID], for which the “pH (H20)” value in data set [1] was determined as 4.21. In data set [2], the “G Factor (G14)” value is 28, the “X Factor” value is −3.1 and the “K Factor” value worked out at 1.

For `O=S(=O)(O)CCN(CCO)CCO` [BES], the “pH (H20)” value in data set [1] came to 6.64. Moreover, in data set [2], the “X Factor” value is 77 and 57; the “K Factor” value is listed as 1, 1.

For `NCCC(=O)N[C@@H](Cc1cnc[nH]1)C(=O)O` [CARNOSINE], the “pH (H20)” value in data set [1] is 8.32. Further, in data set [2], the “G Factor (G14)” value amounted to 35 and the “X Factor” value is −8.

As to `NC(=O)NCCC[C@H](N)C(=O)O` [CITRULLINE], the “pH (H20)” value in data set [1] worked out at 7.71. In addition, in data set [2], the “G Factor (G14)” value is reported as 46, the “X Factor” value is given as 39 and the “K Factor” value turned out to be 1.

Consider `C/C1=C2/[N-][C@H]([C@H](CC(N)=O)[C@@]2(C)CCC(=O)NC[C@@H](C)OP(=O)([O-])O[C@H]2[C@@H](O)[C@@H](n3cnc4cc(C)c(C)cc43)O[C@@H]2CO)[C@]2(C)N=C(/C(C)=C3N=C(/C=C4N=C1[C@@H](CCC(N)=O)C\4(C)C)[C@@H](CCC(N)=O)[C@]\3(C)CC(N)=O)[C@@H](CCC(N)=O)[C@]2(C)CC(N)=O.[CH2-][C@H]1O[C@@H](n2cnc3c(N)ncnc32)[C@H](O)[C@@H]1O.[Co]` [COENZYME B12], for which, in data set [2], the “G Factor (G14)” value was 51 and the “X Factor” value was −17.

Consider `CN(CC(=O)O)C(=N)N` [CREATINE], for which the “pH (H20)” value in data set [1] was 7.54. In addition, in data set [2], the “G Factor (G14)” value is 28 and the “X Factor” value worked out at 0.34.

As for `N[C@@H](CS)C(=O)O` [CYSTEINE], the “pH (H20)” value in data set [1] came out at 7.24. In addition, in data set [2], the “G Factor (G14)” value is given as −50 and the “X Factor” value is given as −35.

On to `N[C@@H](Cc1cc(I)c(O)c(I)c1)C(=O)O` [DIIODOTYROSINE], for which the “pH (H20)” value in data set [1] was 7.23. Further, the “G Factor (G7)” value in data set [2] (Table 1, days 4-7 after transfection) is given as −8*. In addition, the “X Factor” value in data set [2] is reported as −48.

`CCOC(=O)c1ccc(C(C)=O)cc1` [ETHYL 4-ACETYLBENZOATE]: the “pH (H20)” value in data set [1] was found to be 7.59. For the same molecule, in data set [2], the “G Factor (G14)” value was determined as 42, the “X Factor” value was found to be 49 and the “K Factor” value is recorded as 1.

Consider `CCOC(=O)CCCC(C)=O` [ETHYL 4-ACETYLBUTYRATE], for which the “pH (H20)” value in data set [1] is 5.98. In data set [2], the “G Factor (G14)” value was found to be 58, the “X Factor” value is given as 51 and the “K Factor” value is 1.

As for `Nc1nc2ncc(CNc3ccc(C(=O)N[C@@H](CCC(=O)O)C(=O)O)cc3)nc2c(=O)[nH]1` [FOLIC ACID], the “pH (H20)” value in data set [1] is listed as 6. Besides, in data set [2], the “G Factor (G14)” value was determined as 24 and the “X Factor” value is recorded as −1.4.

Consider `N[C@@H](CCC(=O)O)C(=O)O` [GLUTAMIC ACID], for which the “pH (H20)” value in data set [1] turned out to be 4.2. In data set [2], the “K Factor” value is recorded as 2.

In the case of `O=C(O)CCCC(=O)O` [GLUTARIC ACID], the “pH (H20)” value in data set [1] was 3.85. Moreover, in data set [2], the “G Factor (G14)” value was −77 and the “X Factor” value turned out to be 22.

Take `C/C1=C2/[N-][C@H]([C@H](CC(N)=O)[C@@]2(C)CCC(=O)NC[C@H](C)OP(=O)([O-])O[C@H]2[C@@H](O)[C@@H](n3cnc4cc(C)c(C)cc43)O[C@@H]2CO)[C@]2(C)N=C(/C(C)=C3N=C(/C=C4N=C1[C@@H](CCC(N)=O)C\4(C)C)[C@@H](CCC(N)=O)[C@]\3(C)CC(N)=O)[C@@H](CCC(N)=O)[C@]2(C)CC(N)=O.[CH3-].[Co+3]` [METHYLCOBALAMIN]: in data set [2], the “G Factor (G14)” value stood at 25 and the “X Factor” value came out at 1.

On to `NCCC[C@H](N)C(=O)O` [ORNITHINE], for which, in data set [2], the “G Factor (G14)” value was 28 and the “X Factor” value is 16.

As to `O=C(O)CCCCC1CCSS1` (stereo not drawn) [α-lipoic acid, lipoic acid], the “results when substituted for benzoate buffer” value in data set [2] (used in conjunction with chondroitin sulfate as in plates 6 or 13 of Table 9) is listed as “comparable results”.

In the case of N-carboxymethylchitosan N,S-sulfate, in data set [2], the “effect on transient expression when present before or during the transfection step” value was “blocking effect”.

Take carboxymethylcellulose: the “effect on transient expression when present before or during the transfection step” value in data set [2] is recorded as “blocking effect”.

dermatan sulfate: the “effect on transient expression when present before or during the transfection step” value in data set [2] is “blocking effect”.

As to ethyoxy benzoic acid, the “effect on transient expression” value in data set [2] is “capable of prolonging transient expression”.

With gentamicin [reference compound], the “effect on protein production” value in data set [2] (control plates 1A (with gentamicin) vs 1B (no gentamicin)) is reported as “somewhat suppressed protein production”.

Regarding heparan sulfate, in data set [2], the “effect on transient expression when present before or during the transfection step” value is recorded as “blocking effect”.

Regarding heparin [reference compound], in data set [2], the “effect on transient expression when added after the transfection step” value was “effective in enhancing transient expression; also recorded: enhance transient expression” and the “effect on transient expression when present before or during the transfection step” value was “blocking effect; also recorded: blocked transient expression”.

Regarding hydroxypropyl guaran, the results for the “effect on transient expression” value in data set [2] and in data set [2] (listed as Hydroxypropyl guarans) were “capable of prolonging transient expression” and “enhance transient expression to some degree”, respectively.

On to iso-propyl benzoic acid, for which, in data set [2], the “effect on transient expression” value is on record as “capable of prolonging transient expression”.

isobutyl benzoic acid: in data set [2], the “effect on transient expression” value is on record as “capable of prolonging transient expression”.

As for methoxy benzoic acid, in data set [2], the “effect on transient expression” value is reported as “capable of prolonging transient expression”.

In the case of t-butyl benzoic acid, the “effect on transient expression” value in data set [2] was “capable of prolonging transient expression”.

Values taken from patent US20030073654A1, “Stabilized transient gene expression” (Genespan Corporation, priority 1996, published 2003).
